# Assay results published in patent publication US5770611A, “Indole derivatives as 5HT1 -like agonists” (Pfizer Inc., priority 1994, dated 1998).
# How the values were obtained:
# [1] = target: T1, "5-HT1 -like" receptor (dog isolated saphenous vein strip) (Canis lupus familiaris, UniProt P79250); test: contraction of isolated dog saphenous vein strip ("5-HT1 -like" receptor agonist activity); assay type: cell-based; details: for EC50: concentration causing 50% of the maximum contraction effected by the compound; for RELATIVE POTENCY EC50 (compound)/EC50 (5-HT): ratio to 5-HT (higher = less potent)
# T1 construct: on dog isolated saphenous vein strip; from tissue; host or cells: dog isolated saphenous vein strip
# Text: The following Table illustrates the in vitro activities for a range of the compounds of the invention on dog isolated saphenous vein strip. EC50 represents the concentration of compound which causes 50% of the maximum contraction effected by it.
# [2] = target: T1, "5-HT1 -like" receptor (dog isolated saphenous vein strip); details: antagonism of the agonist-induced contraction; cited from earlier work
# T1 sequence (P79250 whole entry): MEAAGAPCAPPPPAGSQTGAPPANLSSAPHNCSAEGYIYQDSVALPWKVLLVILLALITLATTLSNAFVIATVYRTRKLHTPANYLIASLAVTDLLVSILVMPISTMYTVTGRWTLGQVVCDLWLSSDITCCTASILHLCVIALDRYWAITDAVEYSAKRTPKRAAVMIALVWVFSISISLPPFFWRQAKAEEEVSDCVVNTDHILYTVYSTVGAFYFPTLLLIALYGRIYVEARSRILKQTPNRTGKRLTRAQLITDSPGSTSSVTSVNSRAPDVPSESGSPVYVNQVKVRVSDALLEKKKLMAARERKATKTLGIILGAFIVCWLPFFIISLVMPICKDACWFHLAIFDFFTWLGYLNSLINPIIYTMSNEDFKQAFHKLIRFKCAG
EC50 [1] [nM],RELATIVE POTENCY EC50 (compound)/EC50 (5-HT) [1],SMILES,block of contraction of dog saphenous vein strip [2]
3000,71,"CC(C)(O)CCc1ccc2[nH]cc(C[C@H]3CCCN3CC3CCCNC3=O)c2c1 (single isomer, unassigned) [Example 9A]",
1800,78,"CC(C)(O)CCc1ccc2[nH]cc(C[C@H]3CCCN3CC3CCCNC3=O)c2c1 (single isomer, unassigned) [Example 9B]",
180,2.4,"CC(C)(O)CCc1ccc2[nH]cc(C[C@H]3CCCN3C[C@H]3CCCN3S(C)(=O)=O)c2c1 [Example 5, 5-(3-Hydroxy-3-methyl-1-butyl)-3-[N-(N-methane-sulphonyl-2(R)-pyrrolidinylmethyl)-2(R)-pyrrolidinylmethyl]-1H-indole]",

# The next lines start with the compound.
SMILES,EC50 [1] [nM],RELATIVE POTENCY EC50 (compound)/EC50 (5-HT) [1],block of contraction of dog saphenous vein strip [2]
CC(C)(O)CCc1ccc2[nH]cc(C[C@H]3CCCN3CC3CCN(Cc4ccccc4)C3)c2c1 (stereo partly drawn) [Example 1],620,11.0,
CSc1ccc2c(c1)C(N1CCN(C)CC1)Cc1ccccc1S2 (stereo not drawn) [methiothepin],,,This effect can be blocked by methiothepin
